Among the data in PubChem BioAssay (NCI) are GI50 and TGI values, retold here.

Some test systems named below: A549 NSCLC; EKVX NSCLC; MDA-MB-231 breast; OVCAR-8 ovarian; SF-268 CNS; SK-OV-3 ovarian; SN12C renal; SNB-75 CNS.
What all share (assay): NCI tumour cell line growth inhibition, 48 h

Several values for one entry are separate records, joined by “and”; a condition that tells them apart may be missing. Equal values may be shown once.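 Cells were grown in 96-well plates and exposed to each compound for 48 hours at five concentrations; endpoints were interpolated linearly between bracketing concentrations, or set to the highest concentration if not reached. GI50: concentration for 50% inhibition of growth. TGI marks complete inhibition of growth.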

On to `CC(=O)Nc1cccc(-n2c(=O)n(C3CC3)c(=O)c3c(Nc4ccc(I)cc4F)n(C)c(=O)c(C)c32)c1`, for which the GI50 was 0.0345 µM and 0.122 µM in the assay on A549 NSCLC; 0.0135 µM and 0.0443 µM in the assay with EKVX NSCLC; 0.0345 µM with MDA-MB-231 breast; 4.22 µM and > 6.71 µM in the assay with OVCAR-8 ovarian; 3.85 µM and > 6.08 µM with SF-268 CNS; 8.58 µM in the assay with SK-OV-3 ovarian. Moreover, the GI50 with SN12C renal is 2.39 µM and > 2.41 µM; in the assay with SNB-75 CNS it was 3.2 µM and > 2.79 µM. In addition, the TGI in the assay on A549 NSCLC was > 43.8 µM; in the assay on EKVX NSCLC, > 71 µM; in the assay on MDA-MB-231 breast, 14 µM and > 10 µM; with OVCAR-8 ovarian, > 49.6 µM; in the assay with SF-268 CNS it was > 100 µM; in the assay on SK-OV-3 ovarian it was > 85.4 µM. The results for the TGI with SN12C renal and with SNB-75 CNS were > 100 µM and > 55.2 µM, respectively.
For the compound `CC(=O)OCC1OC(O[C@@H]2C[C@H]3C(C)(C)[C@H](OC(C)=O)CC[C@]3(C)[C@H]3CCC4=C([C@@H](C)C[C@@H](O)[C@H](O)C(C)(C)O)CC[C@@]4(C)[C@@]32C)C(O)C(O)C1O` (some centres not stated), the GI50 in the assay on A549 NSCLC was 19 µM; in the assay on EKVX NSCLC, 16.9 µM; with MDA-MB-231 breast, 11.6 µM; in the assay with OVCAR-8 ovarian, 15.9 µM; with SK-OV-3 ovarian, 17.9 µM; in the assay on SN12C renal, 16.4 µM. The GI50 with SNB-75 CNS was 13.2 µM. The TGI is 33.3 µM in the assay on A549 NSCLC; 31 µM with EKVX NSCLC; 23.8 µM with MDA-MB-231 breast; 29.6 µM in the assay on OVCAR-8 ovarian; 27.7 µM in the assay on SF-268 CNS; 32.1 µM with SK-OV-3 ovarian. In addition, the TGI in the assay with SN12C renal was 30 µM; in the assay with SNB-75 CNS it was 26 µM.
As for `O=C(NNc1nc2c(F)cccc2n2cccc12)c1cnccn1`, the GI50 in the assay with A549 NSCLC was 0.466 µM; with EKVX NSCLC it was 0.421 µM; in the assay with MDA-MB-231 breast, 0.834 µM; in the assay on OVCAR-8 ovarian it was 0.414 µM; with SF-268 CNS it was 0.484 µM; with SK-OV-3 ovarian, 0.527 µM. Further, the GI50 in the assay on SN12C renal is 0.602 µM; with SNB-75 CNS, 1.98 µM. Besides, the TGI was 36 µM in the assay with A549 NSCLC; 30 µM with EKVX NSCLC; 24.8 µM in the assay on MDA-MB-231 breast; > 81.6 µM in the assay on OVCAR-8 ovarian; > 67.7 µM in the assay on SF-268 CNS; 27.8 µM in the assay with SK-OV-3 ovarian. Moreover, the TGI with SN12C renal is 31.7 µM; with SNB-75 CNS it was 41.6 µM.
Regarding `O=C(CSc1nc2ccc([N+](=O)[O-])cc2[nH]1)Nc1ccc(F)c(Cl)c1`, the GI50 was 2.48 µM with A549 NSCLC; 1.85 µM in the assay on EKVX NSCLC; 1.91 µM in the assay on MDA-MB-231 breast; 3.04 µM in the assay with OVCAR-8 ovarian; 2.91 µM with SF-268 CNS; 1.42 µM in the assay with SK-OV-3 ovarian. Further, the GI50 was 2.36 µM with SN12C renal and 1.84 µM with SNB-75 CNS. For the same compound, the TGI is 12.6 µM in the assay on A549 NSCLC; 8.85 µM in the assay on EKVX NSCLC; 5.59 µM in the assay with MDA-MB-231 breast; > 34.4 µM in the assay on OVCAR-8 ovarian; 13.2 µM in the assay on SF-268 CNS; 4.79 µM in the assay with SK-OV-3 ovarian. The figures for the TGI in the assay on SN12C renal and in the assay on SNB-75 CNS were 10.7 µM and 7.5 µM, respectively.
As for `O=C(c1ccc2ccccc2c1)c1c(C(F)(F)F)n([O-])c2cc(Cl)c(Cl)cc2[n+]1=O`, the GI50 is 1.63 µM in the assay with A549 NSCLC; 2.04 µM in the assay on EKVX NSCLC; 1.49 µM in the assay on MDA-MB-231 breast; 1.61 µM with OVCAR-8 ovarian; 1.85 µM in the assay with SF-268 CNS; 1.58 µM with SK-OV-3 ovarian. The GI50 was 1.73 µM with SN12C renal and 1.48 µM in the assay with SNB-75 CNS. In addition, the TGI in the assay with A549 NSCLC worked out at 2.98 µM; in the assay with EKVX NSCLC it was 3.47 µM; in the assay with MDA-MB-231 breast, 2.82 µM; in the assay with OVCAR-8 ovarian it was 3.27 µM; in the assay with SF-268 CNS, 3.96 µM; with SK-OV-3 ovarian, 3.15 µM. The TGI with SN12C renal came out at 3.1 µM; with SNB-75 CNS, 2.8 µM.
With `C=C1C(=O)O[C@H]2[C@H]1CC/C(CNC(=O)c1c[nH]c3ccc(F)cc13)=C\CC[C@@]1(C)O[C@@H]21`, the GI50 was 4.59 µM in the assay on A549 NSCLC; 1.68 µM in the assay with EKVX NSCLC; 1.46 µM in the assay with MDA-MB-231 breast; 2.61 µM in the assay with OVCAR-8 ovarian; 1.78 µM with SF-268 CNS; 10.8 µM with SK-OV-3 ovarian. For the same compound, the results for the GI50 in the assay on SN12C renal and with SNB-75 CNS were 1.98 µM and 1.81 µM, respectively. The TGI in the assay on A549 NSCLC is 19.6 µM; in the assay with EKVX NSCLC it was 5.6 µM; in the assay on MDA-MB-231 breast, 3.58 µM; in the assay on OVCAR-8 ovarian, 10.3 µM; with SF-268 CNS, 4.45 µM; with SK-OV-3 ovarian, 22.7 µM. In addition, the results for the TGI in the assay on SN12C renal and in the assay on SNB-75 CNS were 5.42 µM and 16.2 µM, respectively.
Regarding `Cc1nn(-c2ccc(S(=O)(=O)[O-])cc2)c([O-])c1N=[N+](C)c1ccc(-c2ccc(N=Nc3ccc4c(S(=O)(=O)[O-])cc(S(=O)(=O)[O-])c(N)c4c3[O-])c([O-])c2)cc1[O-].[Cu+2].[Cu+2].[Na+]`, the GI50 in the assay with A549 NSCLC, in the assay with EKVX NSCLC, in the assay on MDA-MB-231 breast, in the assay on OVCAR-8 ovarian, with SF-268 CNS and with SK-OV-3 ovarian was > 100 µM throughout. Moreover, the GI50 with SN12C renal and in the assay on SNB-75 CNS was > 100 µM each time. Besides, the TGI in the assay on A549 NSCLC, in the assay on EKVX NSCLC, with MDA-MB-231 breast, with OVCAR-8 ovarian, in the assay on SF-268 CNS and with SK-OV-3 ovarian was > 100 µM each time. Also, the TGI in the assay with SN12C renal and with SNB-75 CNS was > 100 µM in each case.
Consider `C[C@@H]1CC[C@@H]2[C@@H]1[C@H](OC(=O)/C=C/c1ccccc1)[C@]1(c3ccccc3)C[C@@H](OC(=O)CO)[C@@]2(C)O1`, for which the GI50 in the assay with A549 NSCLC is 14.8 µM; in the assay with EKVX NSCLC it was 12.6 µM; in the assay with MDA-MB-231 breast, 16.5 µM; with OVCAR-8 ovarian, 6.71 µM; with SF-268 CNS, 10.4 µM; in the assay on SK-OV-3 ovarian, 23.4 µM. Further, the results for the GI50 in the assay on SN12C renal and in the assay with SNB-75 CNS were 0.538 µM and 11.6 µM, respectively. Also, the TGI with A549 NSCLC was found to be 33.8 µM; in the assay on EKVX NSCLC it was 35.8 µM; with MDA-MB-231 breast, 34.2 µM; in the assay with OVCAR-8 ovarian, 34.8 µM; in the assay on SF-268 CNS it was 37.7 µM; with SK-OV-3 ovarian it was 55.6 µM. The figures for the TGI in the assay on SN12C renal and with SNB-75 CNS were 22.4 µM and 37.9 µM, respectively.
